In patent US20160046597A1, “RORC2 INHIBITORS AND METHODS OF USE THEREOF” (PFIZER INC., priority 2013, published 2016) one finds IC50 data, which are given here for 31 molecules.

pIC50: −log10 of the molar value.

The test concerns the target T1, RORC2 ligand binding domain (6-His-RORC2 LBD) (Homo sapiens, UniProt P51449).
T1 construct: made in house; host or cells: E. coli
T1 sequence (P51449 269-508 limits assumed): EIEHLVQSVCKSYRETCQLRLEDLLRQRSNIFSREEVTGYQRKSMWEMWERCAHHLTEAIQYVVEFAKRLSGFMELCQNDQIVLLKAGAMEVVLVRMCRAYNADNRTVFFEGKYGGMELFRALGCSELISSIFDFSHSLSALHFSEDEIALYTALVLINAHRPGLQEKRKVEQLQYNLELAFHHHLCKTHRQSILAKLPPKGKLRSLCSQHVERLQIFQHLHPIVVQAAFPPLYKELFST
The test can be described thus: Co-activator recruitment by TR-FRET (RORC2 FRET). The format is biochemical. As to conditions: 6.3 nM RORC2 LBD, 200 nM SRC1-2 coactivator peptide, 3 hours room temperature. The source says: The activity of compound of the invention can be determined by a co-activator recruitment by TR-FRET (time-resolved fluorescence resonance energy transfer) assay. […] Due to the long lasting fluorescence emission of Europium, the non-specific, short-lived fluorescence is time-resolved (TR) from the fluorescence of interest. Inhibitors of the interaction of receptor and coactivator peptide are detected by a decrease in TR-FRET signal.
Specifically, in one embodiment the aforementioned assay was performed as outlined below. The assay was carried out in black polystyrene, 384-well plates in a total assay volume of 50.5 μL. The assay buffer contained 50 mM TRIS-HCL pH 7.5, 1 mM NaCl, 2 mM MgCl2, 0.5 mg/mL bovine serum albumin, and 5 mM dithiothreitol.
`Cc1c(NC(=O)c2cccc(C#N)c2)ccc2c1c(C1CCN(C(=O)C[C@@H](O)C(F)(F)F)CC1)cn2C` [Example 89, (R)-3-cyano-N-(1,4-dimethyl-3-(1-(4,4,4-trifluoro-3-hydroxybutanoyl)-piperidin-4-yl)-1H-indol-5-yl)benzamide]: the pIC50 (usually −log10 of the IC50, conventionally taken in molar units) was 7.85.

Molecule `Cn1cc(C2CCN(C(=O)c3cscn3)CC2)c2cc(NC(=O)c3cc(C#N)ccn3)ccc21` [Example 18, 4-cyano-N-{1-methyl-3-[1-(1,3-thiazol-4-ylcarbonyl)piperidin-4-yl]-1H-indol-5-yl}pyridine-2-carboxamide] gave a pIC50 of 7.58.

Molecule `O=C(Nc1ccc2[nH]cc(C3CCN(C(=O)C4CCCC4)CC3)c2c1)c1ccc(CO)cc1` [Example 45, N-{3-[1-(cyclopentylcarbonyl)piperidin-4-yl]-1H-indol-5-yl}-4-(hydroxymethyl)benzamide] gave a pIC50 of 5.46.

The molecule `Cn1cc(C2CCN(C(=O)CC3CCOCC3)CC2)c2cc(NC(=O)c3cc(C#N)ccn3)ccc21` [Example 12, 4-cyano-N-{1-methyl-3-[1-(tetrahydro-2H-pyran-4-ylacetyl)piperidin-4-yl]-1H-indol-5-yl}pyridine-2-carboxamide] gave a pIC50 of 7.61.

`COCC(=O)N1CCC(c2cn(C)c3ccc(NC(=O)c4cc(C#N)ccn4)cc23)CC1` [Example 34, 4-cyano-N-{3-[1-(methoxyacetyl)piperidin-4-yl]-1-methyl-1H-indol-5-yl}pyridine-2-carboxamide] showed a pIC50 of 7.00.

As for `CC(C)CC(=O)N1CCC(c2cn(C)c3ccc(NC(=O)c4cccc(C#N)c4)cc23)CC1` [Example 2, 3-cyano-N-(1-methyl-3-(1-(3-methylbutanoyl)piperidin-4-yl)-1H-indol-5-yl)benzamide], the pIC50 was 7.75.

In turn, `Cn1cc(C2CCN(C(=O)C(O)C(F)(F)F)CC2)c2cc(NC(=O)c3cc(C#N)ccn3)ccc21` (stereo not shown) [Example 23, 4-cyano-N-{1-methyl-3-[1-(3,3,3-trifluoro-2-hydroxypropanoyl)piperidin-4-yl]-1H-indol-5-yl}pyridine-2-carboxamide] gave a pIC50 of 6.48.

As for `Cn1cc(C2CCN(C(=O)C3CCCC3)CC2)c2cc(NS(=O)(=O)c3cccc(F)c3)ccc21` [Example 66, N-{3-[1-(cyclopentylcarbonyl)piperidin-4-yl]-1-methyl-1H-indol-5-yl}-3-fluorobenzenesulfonamide], the pIC50 is 8.15.

In turn, `Cn1cc(C2CCN(C(=O)C[C@@H](O)C(F)(F)F)CC2)c2cc(NC(=O)c3cccc(C#N)c3)ccc21` [Example 90, (R)-3-cyano-N-(1-methyl-3-(1-(4,4,4-trifluoro-3-hydroxybutanoyl)piperidin-4-yl)-1H-indol-5-yl)benzamide] gave a negative logarithm of the IC50 (pIC50) of 7.86.

`N#Cc1cccc(C(=O)Nc2ccc3onc(C4CCN(C(=O)C5CCCC5)CC4)c3c2)c1` [Example 83, 3-cyano-N-(3-(1-(cyclopentanecarbonyl)piperidin-4-yl)benzo[d]isoxazol-5-yl)benzamide] gave a pIC50 of 7.63.

As to `O=C(Nc1ccc2[nH]cc(C3CCN(C(=O)C4CCCC4)CC3)c2c1)c1ccccc1F` [Example 38, N-{3-[1-(cyclopentylcarbonyl)piperidin-4-yl]-1H-indol-5-yl}-2-fluorobenzamide], the pIC50 is 6.04.

In turn, `Cn1cc(C2CCN(C(=O)C3CC(F)(F)C3)CC2)c2cc(NC(=O)c3cc(C#N)ccn3)ccc21` [Example 9, 4-cyano-N-(3-{1-[(3,3-difluorocyclobutyl)carbonyl]piperidin-4-yl}-1-methyl-1H-indol-5-yl)pyridine-2-carboxamide] had a pIC50 of 8.06.

`O=C(Nc1ccc2[nH]cc(C3CCN(C(=O)C4CCCC4)CC3)c2c1)c1ccc2[nH]cnc2c1` [Example 51, N-{3-[1-(cyclopentylcarbonyl)piperidin-4-yl]-1H-indol-5-yl}-1H-benzimidazole-5-carboxamide]: the pIC50 is 6.06.

`Cn1cc(C2CCN(C(=O)C3CCCC3)CC2)c2cc(NS(=O)(=O)c3ccc(C#N)cc3)ccc21` [Example 71, 4-cyano-N-{3-[1-(cyclopentylcarbonyl)piperidin-4-yl]-1-methyl-1H-indol-5-yl}benzenesulfonamide]: the pIC50 was 7.62.

Consider `O=C(Nc1ccc2[nH]cc(C3CCN(C(=O)C4CCCC4)CC3)c2c1)c1ccc2scnc2c1` [Example 43, N-{3-[1-(cyclopentylcarbonyl)piperidin-4-yl]-1H-indol-5-yl}-1,3-benzothiazole-5-carboxamide], for which the pIC50 was 5.99.

In turn, `Cn1cc(C2CCN(C(=O)CC(F)(F)F)CC2)c2cc(NC(=O)c3cc(C#N)ccn3)ccc21` [Example 35, 4-cyano-N-{1-methyl-3-[1-(3,3,3-trifluoropropanoyl)piperidin-4-yl]-1H-indol-5-yl}pyridine-2-carboxamide] had a pIC50 of 7.67.

The molecule `Cn1cc(C2CCN(C(=O)c3ccncn3)CC2)c2cc(NC(=O)c3cc(C#N)ccn3)ccc21` [Example 20, 4-cyano-N-{1-methyl-3-[1-(pyrimidin-4-ylcarbonyl)piperidin-4-yl]-1H-indol-5-yl}pyridine-2-carboxamide] gave a pIC50 of 6.61.

Turning to `Cn1cc(C2CCN(C(=O)C3CCCC3)CC2)c2cc(NS(=O)(=O)C3CC3)ccc21` [Example 72, N-{3-[1-(cyclopentylcarbonyl)piperidin-4-yl]-1-methyl-1H-indol-5-yl}cyclopropanesulfonamide], the pIC50 was 6.89.

For `CC(C)C(=O)N1CCC(c2cn(C)c3ccc(NS(=O)(=O)c4ccc(F)cc4)cc23)CC1` [Example 92, 4-fluoro-N-(3-(1-isobutyrylpiperidin-4-yl)-1-methyl-1H-indol-5-yl)benzenesulfonamide], the pIC50 is 7.98.

Take `Cn1cc(C2CCN(C(=O)[C@H]3CC[C@@H](O)CC3)CC2)c2cc(NC(=O)c3cc(C#N)ccn3)ccc21` [Example 29, 4-cyano-N-(3-{1-[(cis-4-hydroxycyclohexyl)carbonyl]piperidin-4-yl}-1-methyl-1H-indol-5-yl)pyridine-2-carboxamide]: the pIC50 is 7.25.

As to `Cn1cc(C2CCN(C(=O)C3CCCO3)CC2)c2cc(NC(=O)c3cc(C#N)ccn3)ccc21` (stereo not shown) [Example 25, 4-cyano-N-{1-methyl-3-[1-(tetrahydrofuran-2-ylcarbonyl)piperidin-4-yl]-1H-indol-5-yl}pyridine-2-carboxamide], the pIC50 is 7.50.

Consider `Cn1cc(C2CCN(C(=O)[C@H]3CC[C@@H](O)CC3)CC2)c2cc(NC(=O)c3cccc(C#N)c3)ccc21` [Example 5, 3-cyano-N-(3-{1-[(cis-4-hydroxycyclohexyl)carbonyl]piperidin-4-yl}-1-methyl-1H-indol-5-yl)benzamide], for which the pIC50 was 6.98.

`Cn1cc(C2CCN(C(=O)C34CC(C3)C4)CC2)c2cc(NC(=O)c3cc(C#N)ccn3)ccc21` [Example 31, N-{3[1-(bicyclo[1.1.1]pent-1-ylcarbonyl)piperidin-4-yl]-1-methyl-1H-indol-5-yl}-4-cyanopyridine-2-carboxamide] showed a pIC50 of 6.92.

Turning to `Cn1cc(C2CCN(C(=O)C3CCCC3)CC2)c2cc(NC(=O)N3CC(C#N)C3)ccc21` [Example 63, 3-cyano-N-{3-[1-(cyclopentylcarbonyl)piperidin-4-yl]-1-methyl-1H-indol-5-yl}azetidine-1-carboxamide], the pIC50 is 6.71.

`Cn1cc(C2CCN(C(=O)C3CCCC3)CC2)c2cc(NC(=O)N3CC[C@H](C#N)C3)ccc21` [Example 60, (3S)-3-cyano-N-{3-[1-(cyclopentylcarbonyl)piperidin-4-yl]-1-methyl-1H-indol-5-yl}pyrrolidine-1-carboxamide] had a pIC50 of 6.67.

As for `O=C(Nc1ccc2[nH]cc(C3CCN(C(=O)C4CCCC4)CC3)c2c1)c1ccccc1Cl` [Example 44, 2-chloro-N-{3-[1-(cyclopentylcarbonyl)piperidin-4-yl]-1H-indol-5-yl}benzamide], the pIC50 is 6.20.

For `N#Cc1ccc(F)c(C(=O)Nc2ccc3[nH]cc(C4CCN(C(=O)C5CCCC5)CC4)c3c2)c1` [Example 41, 5-cyano-N-{3-[1-(cyclopentylcarbonyl)piperidin-4-yl]-1H-indol-5-yl}-2-fluorobenzamide], the pIC50 is 6.49.

As for `Cc1c(NC(=O)c2cccc(C#N)c2)cnc2c1c(C1CCN(C(=O)C[C@@H](O)C(F)(F)F)CC1)cn2C` [Example 95, (R)-3-Cyano-N-(1,4-dimethyl-3-(1-(4,4,4-trifluoro-3-hydroxybutanoyl)piperidin-4-yl)-1H-pyrrolo[2,3-b]pyridin-5-yl)benzamide], the pIC50 was 7.33.

`Cc1ncc(C(=O)Nc2ccc3[nH]cc(C4CCN(C(=O)C5CCCC5)CC4)c3c2)cc1C#N` [Example 53, 5-cyano-N-{3-[1-(cyclopentylcarbonyl)piperidin-4-yl]-1H-indol-5-yl}-6-methylnicotinamide] gave a pIC50 of 6.91.

For the molecule `CC(C)C[C@H](O)C(=O)N1CCC(c2cn(C)c3ccc(NC(=O)c4cccc(C#N)c4)cc23)CC1` [Example 4, 3-cyano-N-(3-(1-((2S)-2-hydroxy-4-methylpentanoyl)piperidin-4-yl)-1-methyl-1H-indol-5-yl)benzamide], the pIC50 was 6.23.

Consider `Cn1cc(C2CCN(C(=O)c3cccc(O)n3)CC2)c2cc(NC(=O)c3cc(C#N)ccn3)ccc21` [Example 21, 4-cyano-N-(3-{1-[(6-hydroxypyridin-2-yl)carbonyl]piperidin-4-yl}-1-methyl-1H-indol-5-yl)pyridine-2-carboxamide], for which the pIC50 was 5.84.
